These results are taken from US20110217297A1, “METHODS FOR CLASSIFYING AND TREATING BREAST CANCERS” (priority 2010, published 2011).

The subject of one assay is tumors. As to conditions: TNP-470 below maximum tolerated dose plus cyclophosphamide 170 mg/kg, every 6 days, in combination; cited from earlier work.
Assay [1] concerns breast cancer molecular subtypes I-VI. The assay is described as follows: Metastasis-free and overall survival of breast cancer patients treated with CMF or CAF adjuvant chemotherapy, compared in each molecular subtype (log-rank test). It is filed as in vivo, human. As to conditions: for sensitivity / response of the breast cancer subtype to the drug or regimen: molecular subtype IV breast cancer, inferred from CMF vs CAF survival. The text has this: Patients who had been diagnosed, treated and followed for breast cancer progression between 1991 and 2003 at the Koo Foundation Sun Yat-Sen Cancer Center (KFSYSCC), and had their fresh breast cancer tissue frozen in liquid nitrogen at the institutional tumor bank were identified. […] The study was approved by the institutional review board. Samples deposited in the tumor bank were randomly selected. A total of 447 cases were available. Samples of insufficient RNA (n=1), poor RNA quality (n=116) or unacceptable microarray quality (n=18) were excluded from the study, leaving 312 random samples available (Cohort-1). Gene expression profiles of 15 additional lobular carcinomas of breast collected between 1999 and 2004 were also included in the study (Cohort 2). Thus, the total number of samples was 327.
All statistical analyses were conducted using SAS/STAT software (ver. 9.1.3) (SAS Institute, Inc.) and R software package (v2.6) from Bioconductor. Fisher's exact test was conducted to determine statistical correlation between molecular subtypes and various clinical phenotypes. The exact p values were estimated by Monte Carlo simulation. Log-rank test was used to analyze survival differences between different molecular subtypes or treatment groups.
The breast cancer samples used in this study were collected over a period of more than 10 years. The period covered a major shift of chemotherapy regimen from CMF (cyclophosphamide-methotrexate-fluorouracil) therapy to CAF (cyclophosphamide-adriamycin-fluorouracil) therapy around 1997 and 1998. The cohorts in this study offered a precious opportunity to investigate how different molecular subtypes of breast cancer responded differently to this change of adjuvant chemotherapy regimen.
Metastasis-free and overall survival were compared for patients treated with CMF and CAF for adjuvant therapy in each molecular subtype. […] Nevertheless, the CAF group had more N stage=1 patients and the CMF group had more N stage=0 patients (Table 15b).

Entries after “also recorded” stand apart in the source; their conditions may differ.

As to `CO[C@@H]1[C@H](OC(=O)NC(=O)CCl)CC[C@]2(CO2)[C@H]1[C@@]1(C)O[C@@H]1CC=C(C)C` [TNP-470], the “tumor response to the treatment regimen” value in the assay on tumors is “complete regression”.
As for `COc1cccc2c1C(=O)c1c(O)c3c(c(O)c1C2=O)C[C@@](O)(C(=O)CO)C[C@@H]3O[C@H]1C[C@H](N)[C@H](O)[C@H](C)O1` [adriamycin, doxorubicin], the “treatment results (metastasis-free and overall survival), CAF vs CMF adjuvant chemotherapy” value in assay [1] (molecular subtype IV breast cancer patients, adjuvant chemotherapy after surgery) was “dramatic impact; also recorded: significantly improved”. Moreover, the “sensitivity / response of the breast cancer subtype to the drug or regimen” value in assay [1] is listed as “very sensitive”.
Take `O=P1(N(CCCl)CCCl)NCCCO1` (centres unmarked) [cyclophosphamide]: the “tumor response to the treatment regimen” value with tumors was “complete regression”.
In the case of `CN(Cc1cnc2nc(N)nc(N)c2n1)c1ccc(C(=O)N[C@@H](CCC(=O)O)C(=O)O)cc1` [methotrexate], in assay [1], the “sensitivity / response of the breast cancer subtype to the drug or regimen” value is listed as “relatively insensitive”.
